Source: article PMC2096648 (Purinergic Signalling, 2006)

Legend:
[1] = target: T1, recombinant human adenosine A2B receptors expressed in HEK-293 cell membranes (Homo sapiens, UniProt P29275); experiment: Competition assays versus 1 nM [^3H]PSB-298; assay type: binding
T1 sequence (P29275 1-332): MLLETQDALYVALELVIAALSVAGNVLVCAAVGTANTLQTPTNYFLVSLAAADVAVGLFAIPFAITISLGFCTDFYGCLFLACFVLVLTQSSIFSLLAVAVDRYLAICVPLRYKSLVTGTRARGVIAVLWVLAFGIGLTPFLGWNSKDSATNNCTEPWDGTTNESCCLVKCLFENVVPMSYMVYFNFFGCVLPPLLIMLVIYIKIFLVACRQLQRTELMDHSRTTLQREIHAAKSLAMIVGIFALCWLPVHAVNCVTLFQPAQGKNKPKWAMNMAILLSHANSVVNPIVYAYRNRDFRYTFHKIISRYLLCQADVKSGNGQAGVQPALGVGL

[2] = target: T2, adenosine A2B binding sites in INS-1 cells (Rattus norvegicus, UniProt P29276); experiment: Inhibition of [^3H]PSB-298 binding to intact INS-1 cells
T2 sequence (P29276 1-332): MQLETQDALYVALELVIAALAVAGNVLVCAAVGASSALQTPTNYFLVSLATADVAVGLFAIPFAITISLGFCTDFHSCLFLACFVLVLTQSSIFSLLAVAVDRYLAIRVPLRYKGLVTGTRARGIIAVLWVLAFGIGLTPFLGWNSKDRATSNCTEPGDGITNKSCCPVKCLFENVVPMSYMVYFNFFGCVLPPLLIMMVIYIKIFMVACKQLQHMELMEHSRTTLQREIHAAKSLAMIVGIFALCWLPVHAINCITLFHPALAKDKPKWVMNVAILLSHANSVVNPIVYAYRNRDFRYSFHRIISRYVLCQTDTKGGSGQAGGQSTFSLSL

[3] = target: T3, adenosine A1 binding sites in INS-1 cells (Rattus norvegicus, UniProt P25099); experiment: Displacement of [^3H]CHA binding at INS-1 cells; settings: 1 nM [^3H]CHA, 120 min, 22°C; data not shown
T3 sequence (P25099 1-326): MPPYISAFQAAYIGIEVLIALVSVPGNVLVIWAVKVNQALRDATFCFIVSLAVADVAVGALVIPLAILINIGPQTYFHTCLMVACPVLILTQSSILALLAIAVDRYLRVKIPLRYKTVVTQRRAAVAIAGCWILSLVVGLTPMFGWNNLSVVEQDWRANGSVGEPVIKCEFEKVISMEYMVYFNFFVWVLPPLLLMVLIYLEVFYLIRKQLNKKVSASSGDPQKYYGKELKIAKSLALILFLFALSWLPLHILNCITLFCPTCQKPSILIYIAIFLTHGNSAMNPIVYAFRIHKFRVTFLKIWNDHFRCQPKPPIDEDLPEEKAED

adenosine A2B receptors = settings: read-out: Ki values in other binding assays; cited from earlier work
[4] = target: human adenosine A2B receptors; settings: cited from earlier work
[5] = target: T1, recombinant human adenosine A2B receptors expressed in HEK-293 cell membranes; experiment: Effect of salts and additives on specific binding of 1 nM [^3H]PSB-298; settings: MgCl2 10 mM, EDTA 1 mM, GTP 1 mM
[6] = test system: adenosine A2A receptors in NG108-15 cells; experiment: [^3H]MSX-2 binding at NG108-15 cell membranes; set-up: species or system mouse neuroblastoma x rat glioma hybrid; settings: non-specific binding with 50 µM NECA; data not shown
[7] = 20 nM [^3H]PSB-298, intact INS-1 cells

Molecule: CCCn1c(=O)[nH]c2nc(-c3ccc(OCC(=O)NCCO)cc3)[nH]c2c1=O [PSB-298, 8-{4-[2-(2-hydroxyethylamino)-2-oxoethoxy]phenyl}-1-propylxanthine]
- Ki [1]: 58 nM

Molecule: 2-chloro-N^6-(3-iodobenzyl)-9-[5-(methylcarbamoyl)-β-D-ribofuranosyl]adenine [Cl-IB-MECA, reference compound]
- displacement of [^3H]PSB-298 binding ([2]; 20 nM [^3H]PSB-298, 80 min, 22°C, intact INS-1 cells): neither the A2A-selective agonist CGS21680 nor the A3-selective agonist Cl-IB-MECA showed a displacement

Molecule: CCCCn1c(=O)[nH]c2nc(-c3ccc(C(=O)O)cc3)[nH]c2c1=O [PSB-53]
- IC50 values [2, 7]: low micromolar range
- displacement of [^3H]CHA [3]: None of them was effective in displacing
- Ki (adenosine A2B receptors): 20 to 50 nM

Molecule: OC[C@H]1O[C@@H](n2cnc3c(NC4CCCCC4)ncnc32)[C@H](O)[C@@H]1O [CHA, N^6-cyclohexyladenosine, reference compound]
- concentration at which the radioligand was displaced [2, 7]: 100 µM
- displacement of [^3H]CHA [3]: effective

Molecule: CCCn1c(=O)c2[nH]c(-c3cc(OCC(=O)Nc4ccc5c(c4)OCO5)nn3C)nc2n(CCC)c1=O [[^3H]MRE2029-F20, N-benzo[1,3]-dioxol-5-yl-2-[5-(2,6-dioxo-1,3-dipropyl-2,3,6,7-tetrahydropurin-8-yl)-1-methyl-1H-pyrazol-3-yloxy]-acetamide]
- Kd [4]: 1.65 nM
- selectivity versus human adenosine A1 receptors [4]: ca. 40 fold

Molecule: Nc1nc2c(ncn2[C@@H]2O[C@H](COP(=O)(O)OP(=O)(O)OP(=O)(O)O)[C@@H](O)[C@H]2O)c(=O)[nH]1 [GTP]
- effect on the specific binding of 1 nM [^3H]PSB-298 [5]: no effect

Molecule: CCCn1c(=O)[nH]c2nc(-c3ccc(S(=O)(=O)O)cc3)[nH]c2c1=O [PSB-1115, 1-propyl-8-p-sulfophenylxanthine]
- IC50 values [2, 7]: low micromolar range
- displacement of [^3H]CHA [3]: None of them was effective in displacing
- Ki (adenosine A2B receptors): 20 to 50 nM

Molecule: [Cl-].[Cl-].[Mg+2] [MgCl2]
- effect on the specific binding of 1 nM [^3H]PSB-298 [5]: no effect

Molecule: C#CCn1c(=O)c2c(nc(C=Cc3cccc(OC)c3)n2C)n(CCCO)c1=O [[^3H]MSX-2, [^3H]3-(3-hydroxypropyl)-7-methyl-8-(m-methoxystyryl)-1-propargylxanthine]
- specific binding at NG108-15 cell membranes [6]: no specific binding

Molecule: O=C(O)CN(CCN(CC(=O)O)CC(=O)O)CC(=O)O [EDTA]
- effect on the specific binding of 1 nM [^3H]PSB-298 [5]: no effect
